This is an account of results in patent publication US20240043427A1 (Gilead Sciences, Inc., priority 2020, published 2024).

pEC50, pIC50: −log10 of the molar value. Like-named read-outs stand apart in the source and are kept apart here. Bounds are passed on as bounds.

Assay [1] has as its target T1, CD73 (Homo sapiens (Human), UniProt P21589). Nature of the assay: CD73 Biochemical IC50 Assay. The conditions noted are these: CD73 0.3 nM, AMP 15 uM, 25 mM Tris pH 7.4, 5 mM MgCl2. The procedure: CD73 Biochemical IC50 Assay
Compound serial dilutions were pre-spotted into Thermo Nunc assay plate. 50 μL CD73 enzyme buffer (CD73 purchased from R&D system=0.6 nM, 25 mM Tris, pH 7.4, 5 mM MgCl2) was added into the assay plate and incubated for 15 mins. […] The samples were run using Rapid fire.

The target in assay [2] is T1, CD73. Description: MDA-MB-231 Cell Based CD73 Activity Assay. The conditions noted are these: MDA-MB-231-GFP cells, RPMI medium with 10% human plasma, 200 uM AMP.
The target of assay [3] is T1, CD73. The format is biochemical. The conditions noted are these: 1 mM NaH2PO4 in enzyme buffer, CD73 0.3 nM, AMP 15 uM.
Assay [4] deals with T1, CD73. Description: MDA-MB-231 Cell Based CD73 Activity Assay (DMEM). The conditions noted are these: MDA-MB-231-GFP cells, DMEM medium with 10% human plasma, 200 uM AMP.

T1 sequence (P21589 27-574): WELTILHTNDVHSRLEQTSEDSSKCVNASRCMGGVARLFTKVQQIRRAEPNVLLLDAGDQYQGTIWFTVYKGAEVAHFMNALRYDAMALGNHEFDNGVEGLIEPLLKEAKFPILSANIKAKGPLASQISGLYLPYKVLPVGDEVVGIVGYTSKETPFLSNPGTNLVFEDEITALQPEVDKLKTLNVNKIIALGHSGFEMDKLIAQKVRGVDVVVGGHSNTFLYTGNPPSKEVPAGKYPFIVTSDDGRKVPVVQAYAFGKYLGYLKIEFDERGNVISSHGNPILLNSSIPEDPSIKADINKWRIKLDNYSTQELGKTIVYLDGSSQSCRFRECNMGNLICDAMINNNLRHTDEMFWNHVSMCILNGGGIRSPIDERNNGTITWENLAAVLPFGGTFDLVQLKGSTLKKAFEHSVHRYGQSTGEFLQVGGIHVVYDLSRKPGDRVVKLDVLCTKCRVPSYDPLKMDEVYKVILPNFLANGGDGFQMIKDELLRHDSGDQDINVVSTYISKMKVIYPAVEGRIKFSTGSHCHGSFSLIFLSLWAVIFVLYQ

In general, pIC50 refers to the IC50 on a negative log10 scale, so that one unit is a factor of ten. Usually pEC50 stands for −log10 of the EC50, conventionally taken in molar units. Higher therefore signals a low EC50. As to `CC1(C)CN(c2cc(-c3c[nH]c(=O)[nH]c3=O)nn3ccnc23)C1` [Example 63, 5-(8-(3,3-dimethylazetidin-1-yl)imidazo[1,2-b]pyridazin-6-yl)pyrimidine-2,4(1H,3H)-dione], the pIC50 is 7.15 in assay [1] and 7.54 in assay [3]. The pEC50 in assay [2] was 7.46; in assay [4] it was 7.32.
`O=c1[nH]cc(-c2cc(N3CC(C(F)(F)F)C3)c3nccn3n2)c(=O)[nH]1` [Example 62, 5-(8-(3-(trifluoromethyl)azetidin-1-yl)imidazo[1,2-b]pyridazin-6-yl)pyrimidine-2,4(1H,3H)-dione]: the pIC50 in assay [1] is 7.56; in assay [3], 8.07. The pEC50 in assay [2] was 7.60; in assay [4], 7.49.
`O=c1[nH]cc(-c2cc(N3CC(F)(F)C(F)(F)C3)c3nccn3n2)c(=O)[nH]1` [Example 109, 5-(8-(3,3,4,4-tetrafluoropyrrolidin-1-yl)imidazo[1,2-b]pyridazin-6-yl)pyrimidine-2,4(1H,3H)-dione]: the pIC50 in assay [1] is 7.35; in assay [3], 8.53. The pEC50 in assay [2] is 7.89.
On the same counts, the results for `O=c1[nH]cc(-c2cc([C@H]3C[C@@H]3c3ccc(C(F)(F)F)cc3)c3nccn3n2)c(=O)[nH]1` (racemic) [Example 42, 5-[8-[(1S,2S)-2-[4-(trifluoromethyl)phenyl]cyclopropyl]imidazo[1,2-b]pyridazin-6-yl]-1H-pyrimidine-2,4-dione and 5-[8-[(1R,2R)-2-[4-(trifluoromethyl)phenyl]cyclopropyl]imidazo[1,2-b]pyridazin-6-yl]-1H-pyrimidine-2,4-dione] are 7.54, 8.68 and 8.12.
For the compound `CC1(C)CCN(c2cc(-c3c[nH]c(=O)[nH]c3=O)nn3ccnc23)C1` [Example 72, 5-[8-(3,3-dimethylpyrrolidin-1-yl)imidazo[1,2-b]pyridazin-6-yl]-1H-pyrimidine-2,4-dione], the pIC50 in assay [1] is 7.58; in assay [3] it was 8.16. The results for the pEC50 in assay [2] and in assay [4] were 7.91 and 7.59, respectively.
On the same counts, the results for `N#Cc1cc(F)cc([C@H]2C[C@@H]2c2cc(-c3c[nH]c(=O)[nH]c3=O)nn3ccnc23)c1` (racemic) [Example 85, 3-[(1S,2S)-2-[6-(2,4-dioxo-1H-pyrimidin-5-yl)imidazo[1,2-b]pyridazin-8-yl]cyclopropyl]-5-fluoro-benzonitrile and 3-[(1R,2R)-2-[6-(2,4-dioxo-1H-pyrimidin-5-yl)imidazo[1,2-b]pyridazin-8-yl]cyclopropyl]-5-fluoro-benzonitrile] are 7.36, 8.87, 8.22 and 7.75.
On the same counts, the results for `O=c1[nH]cc(-c2cc([C@H]3C[C@@H]3c3ccc4c(c3)OC(F)(F)O4)c3nccn3n2)c(=O)[nH]1` (racemic) [Example 110, 5-(8-((1S,2S)-2-(2,2-difluorobenzo[d][1,3]dioxol-5-yl)cyclopropyl)imidazo[1,2-b]pyridazin-6-yl)pyrimidine-2,4(1H,3H)-dione and 5-(8-41R,2R)-2-(2,2-difluorobenzo[d][1,3]dioxol-5-yl)cyclopropyl)imidazo[1,2-b]pyridazin-6-yl)pyrimidine-2,4(1H,3H)-dione] are 7.50, 8.53, 8.12 and 7.54.
With `O=c1[nH]cc(-c2cc([C@H]3C[C@@H]3c3cccnc3)c3nccn3n2)c(=O)[nH]1` (racemic) [Example 53, 5-[8-[(1S,2S)-2-(3-pyridyl)cyclopropyl]imidazo[1,2-b]pyridazin-6-yl]-1H-pyrimidine-2,4-dione and 5-[8-[(1R,2R)-2-(3-pyridyl)cyclopropyl]imidazo[1,2-b]pyridazin-6-yl]-1H-pyrimidine-2,4-dione], the pIC50 in assay [1] is 7.68; in assay [3], 8.82. The compound also had a pEC50 in assay [2] of 8.29.
For the compound `O=c1[nH]cc(-c2cc(N3CCCC(F)(F)C3)c3nccn3n2)c(=O)[nH]1` [Example 93, 5-(8-(3,3-difluoropiperidin-1-yl)imidazo[1,2-b]pyridazin-6-yl)pyrimidine-2,4(1H,3H)-dione], the pIC50 is 6.28 in assay [1] and under 6.60 in assay [3]. Also, the pEC50 in assay [2] was 6.25; in assay [4], 6.16.
On the same counts, the results for `O=c1[nH]cc(-c2cc([C@H]3C[C@@H]3c3ccc(F)cc3)c3nc(C4CC4)cn3n2)c(=O)[nH]1` (racemic) [Example 86, 5-[2-cyclopropyl-8-[(1S,2S)-2-(4-fluorophenyl)cyclopropyl]imidazo[1,2-b]pyridazin-6-yl]-1H-pyrimidine-2,4-dione and 5-[2-cyclopropyl-8-[(1R,2R)-2-(4-fluorophenyl)cyclopropyl]imidazo[1,2-b]pyridazin-6-yl]-1H-pyrimidine-2,4-dione] are 6.82, 8.25, 7.66 and 7.78.
The like results for `N#Cc1ccc([C@H]2C[C@@H]2c2cc(-c3c[nH]c(=O)[nH]c3=O)nn3ccnc23)cc1F` (racemic) [Example 115, 4-((1S,2S)-2-(6-(2,4-dioxo-1,2,3,4-tetrahydropyrimidin-5-yl)imidazo[1,2-b]pyridazin-8-yl)cyclopropyl)-2-fluorobenzonitrile] were, in that order, 7.88, 8.75, 8.38 and 7.89.
For the compound `CC1(C)CCN(c2cc(-c3c[nH]c(=O)[nH]c3=O)nc3ncnn23)C1` [Example 92, 5-(7-(3,3-dimethylpyrrolidin-1-yl)-[1,2,4]triazolo[1,5-a]pyrimidin-5-yl)pyrimidine-2,4(1H,3H)-dione], the pIC50 in assay [1] was 7.81; in assay [3], 8.18. In assay [2], this compound showed a pEC50 of 7.63.
Consider `O=c1[nH]cc(-c2cc([C@H]3C[C@@H]3c3ccc(Cl)c(F)c3)c3nccn3n2)c(=O)[nH]1` (racemic) [Example 98, 5-(8-((1S,2S)-2-(4-chloro-3-fluorophenyl)cyclopropyl)imidazo[1,2-b]pyridazin-6-yl)pyrimidine-2,4(1H,3H)-dione and 5-(8-((1R,2R)-2-(4-chloro-3-fluorophenyl)cyclopropyl)imidazo[1,2-b]pyridazin-6-yl)pyrimidine-2,4(1H,3H)-dione], for which the figures for the negative logarithm of the IC50 (pIC50) in assay [1] and in assay [3] were 7.78 and 8.70, respectively. Moreover, the pEC50 is 8.14 in assay [2] and 7.75 in assay [4].
Take `O=c1[nH]cc(-c2cc([C@H]3C[C@@H]3c3ccncc3)c3nccn3n2)c(=O)[nH]1` (racemic) [Example 54, 5-[8-[(1S,2S)-2-(4-pyridyl)cyclopropyl]imidazo[1,2-b]pyridazin-6-yl]-1H-pyrimidine-2,4-dione and 5-[8-[(1R,2R)-2-(4-pyridyl)cyclopropyl]imidazo[1,2-b]pyridazin-6-yl]-1H-pyrimidine-2,4-dione]: the values for the pIC50 in assay [1] and in assay [3] were 7.75 and 8.70, respectively. The pEC50 in assay [2] is 8.47.
Take `O=c1[nH]cc(-c2cc(N3C[C@H](F)[C@@H](F)C3)c3nccn3n2)c(=O)[nH]1` (racemic) [Example 73, 5-[8-[(3S,4S)-3,4-difluoropyrrolidin-1-yl]imidazo[1,2-b]pyridazin-6-yl]-1H-pyrimidine-2,4-dione and 5-[8-[(3R,4R)-3,4-difluoropyrrolidin-1-yl]imidazo[1,2-b]pyridazin-6-yl]-1H-pyrimidine-2,4-dione]: the pIC50 in assay [1] was 7.40; in assay [3] it was 8.01. In addition, the pEC50 is 7.76 in assay [2] and 7.50 in assay [4].
The like results for `O=c1[nH]cc(-c2cc(N3CCC(F)(F)C3)c3nccn3n2)c(=O)[nH]1` [Example 79, 5-[8-(3,3-difluoropyrrolidin-1-yl)imidazo[1,2-b]pyridazin-6-yl]-1H-pyrimidine-2,4-dione] were, in that order, 7.60, 8.34, 7.93 and 7.68.
For `O=c1[nH]cc(-c2cc(N3CCC(F)(F)CC3)c3nccn3n2)c(=O)[nH]1` [Example 70, 5-[8-(4,4-difluoro-1-piperidyl)imidazo[1,2-b]pyridazin-6-yl]-1H-pyrimidine-2,4-dione], the results for the pIC50 in assay [1] and in assay [3] were 6.66 and 6.87, respectively. For the same compound, the results for the pEC50 in assay [2] and in assay [4] were 6.62 and 6.54, respectively.
Regarding `O=c1[nH]cc(-c2cc([C@H]3C[C@@H]3c3ccccn3)c3nccn3n2)c(=O)[nH]1` (racemic) [Example 52, 5-[8-[(1S,2S)-2-(2-pyridyl)cyclopropyl]imidazo[1,2-b]pyridazin-6-yl]-1H-pyrimidine-2,4-dione and 5-[8-[(1R,2R)-2-(2-pyridyl)cyclopropyl]imidazo[1,2-b]pyridazin-6-yl]-1H-pyrimidine-2,4-dione], the pIC50 in assay [1] was 7.70; in assay [3] it was 8.94. Also, in assay [2], the pEC50 is 8.57.
`O=c1[nH]cc(-c2cc(-n3ccnc3)c3nccn3n2)c(=O)[nH]1` [Example 11, 5-(8-imidazol-1-ylimidazo[1,2-b]pyridazin-6-yl)-1H-pyrimidine-2,4-dione] gave a pIC50 in assay [1] of 6.96. The same compound had a pEC50 in assay [2] of 7.13.
